Patent US7141603B2, “Antitumor agents” (The Regents of The University California, priority 1999, dated 2006)

Key:
[1] = test system: MV522 lung carcinoma xenograft; experiment: Test B in vivo MV522 lung carcinoma xenograft; conditions: for MTD reached in Test B: daily IP for 5 consecutive days, MV522 xenograft mice; for relative tumor weight Wt/Wi Day 17 / relative tumor weight Wt/Wi Day 24 / relative tumor weight Wt/Wi Day 31: i.p. QD×5 on days 10-14, day ten = 1.0, dose: 1 14 mg/kg, 2 35 mg/kg, 13 32 mg/kg, 14 28 mg/kg
Text: Several representative compounds of the invention were chosen for in vivo studies. […] Drug therapy was started 10 days after inoculation on a daily basis via IP route for 5 consecutive days. The animals were monitored for 3 weeks after start of therapy.
BALB/c nu/nu 4-week old female mice weighing 18–22 g were obtained from Simonsen, Inc. (Gilroy, Calif.) and maintained in the athymic mouse colony of the University of California (San Diego, Calif.) under pathogen free conditions using HEPA filter hoods. Animals were provided with sterilized food and water ad libitum in groups of 5 in plastic cages vented with polyester fiber filter covers. Clean, sterilized gowns, glove, face masks, and shoe and hood covers were worn by all personnel handling the animals. All studies were conducted in accordance with guidelines of the NIH “Guide for Care and Use of Animals” and approved by the University Institutional Animal Care and Use Committee (Protocol 3-006-2)
The MV522 lung carcinoma line used for xenograft studies was derived as described by Kelner et al. (Anticancer Res., 15: 867–872; 873–878 (1995)) and maintained in antibiotic-free RPMI 1640 (Mediatech, Herndon, Va.) supplemented with 10% fetal bovine serum and 2 mM glutamine in 37° C. humidified carbon dioxide incubator.
Each animal was earmarked and followed individually throughout the experiments. Mice received s.c. injections of the parental cell line MV522 using 10 million cells/inoculation over the shoulder. Ten days after s.c. implantation of the MV522 cells, when s.c. tumors were approximately 3×3 mm in size, animals received the desired drug and dosage. The effect of the compound on life span was calculated from median survival.
Although MV522 cells kill mice by metastases, primary s.c. tumor growth over the shoulder was monitored starting on the first day of treatment and at weekly intervals thereafter. Tumor size was measured in two perpendicular diameters. Tumor weights were estimated according to the formula w=(width)^2×length/2). Relative weights (RW) were calculated to standardized variability in tumor size among test groups at initiation of treatment using the formula RW=Wt/wi, where Wi is the tumor weight for a given animal at beginning of drug treatment and Wt is tumor weight at a subsequent time. Animals were necropsied, and organs were examined for evidence of metastases.
Comparison of survival curves between groups of animals was by the method of Kaplan and Meier. For comparison of relative tumor weights between multiple groups of animals, ordinary ANOVA followed by Tukey-Kramer multiple Comparison post ANOVA analysis was performed (Kelner et al. (Anticancer Res., 15: 867–872; 873–878 (1995)). Probability values (p) less than 0.05 were considered statistically significant.
Data was collected using eight animals in the control studies and four animals in each compound study. Values represent relative tumor weight or Wt/Wi (day ten by definition is 1.0). Drug was administered i.p. on days 10, 11, 12, 13, and 14 (QD×5 days).

[2] = test system: 8392 (B-cell leukemia/lymphoma) cells; experiment: Test A in vitro cytotoxicity, 2 hour exposure, [3H]-thymidine incorporation; assay type: cell-based; conditions: read-out: 2 hour IC50 8392, mean ± 1 standard deviation
Procedure: (§1) To assess cytotoxic effects, various concentrations of compounds of the invention were added to cultures of MV522 (human lung carcinoma cell line), HL60 (myeloid leukemia cells), and 8392 (B-cell leukemia/lymphoma) cells for 48 hours, then cell growth/viability was determined by trypan blue exclusion. As an alternative to 48 hour continuous exposure studies, cells were plated in liquid culture in 96 well plates, exposed to various concentrations of compounds of the invention for 2 hours, pulsed with [^3H]-thymidine for one to two hours and harvested onto filter papers. The filter papers were added to vials containing scintillation fluid and residual radioactivity determined in a beta (scintillation) counter.
(§2) Values are reported as mean±1 standard deviation; units are nanomoles per liter; and NT signifies not tested.

[3] = test system: MV522 (human lung carcinoma cell line); experiment: as above; assay type: cell-based; conditions: read-out: 2 hour IC50 MV522, mean ± 1 standard deviation
Procedure: as §1, §2

[4] = Tolerated dose / toxicity on administration; conditions: chronically administered at 35 mg/kg
Text: As one skilled in the art would recognize, the amount can be varied depending on the method of administration.

[5] = test system: HL60 (myeloid leukemia cells); experiment: Test A in vitro cytotoxicity, 2 hour exposure, [3H]-thymidine incorporation; assay type: cell-based; conditions: read-out: 2 hour IC50 HL60, mean ± 1 standard deviation
Procedure: as §1, §2

solid tumor systems = conditions: cited from earlier work
Dunning leukemia = conditions: rats with Dunning leukemia; cited from earlier work

SMILES	relative tumor weight Wt/Wi Day 17 [1]	relative tumor weight Wt/Wi Day 24 [1]	relative tumor weight Wt/Wi Day 31 [1]	IC50 [3]	IC50 [5]	other results
CC1=C2C=C(CO)C=C2C(=O)C(C)(O)C12CC2 (centres unmarked) [Compound 1]	1.4 ± 0.7	7.0 ± 1.3	11.8 ± 3.0	–	–	MTD reached in Test B [1]: not; IC50 [2]: 37 µM
CC1=C2C(=CC(CO)=C2CO)C(=O)C(C)(O)C12CC2 (centres unmarked) [Compound 2]	2.1 ± 0.2	3.3 ± 0.3	4.0 ± 0.9	11.3 µM	–	MTD reached in Test B [1]: not; toxicity on chronic administration [4]: without toxicity
CC(=O)OCC1=CC2=C(C)C3(CC3)C(C)(O)C(=O)C2=C1 (centres unmarked) [Compound 3]	–	–	–	19.6 µM	15.6 µM	IC50 [2]: 62 µM
CC(=O)OCC1=C(CO)C=C2C(=O)C(C)(O)C3(CC3)C(C)=C21 (centres unmarked) [Compound 4]	–	–	–	20.4 µM	> 40 µM	–
CC(=O)OCC1=C(COC(C)=O)C2=C(C)C3(CC3)C(C)(O)C(=O)C2=C1 (centres unmarked) [Compound 5]	–	–	–	–	38.4 µM	–
COCC1=CC2=C(C)C3(CC3)C(C)(O)C(=O)C2=C1 (centres unmarked) [Compound 7]	–	–	–	–	6 µM	–
COCC1=C(CO)C=C2C(=O)C(C)(O)C3(CC3)C(C)=C21 (centres unmarked) [Compound 8]	–	–	–	> 80 µM	> 80 µM	–
COCC1=C(COC)C2=C(C)C3(CC3)C(C)(O)C(=O)C2=C1 (centres unmarked) [Compound 9]	–	–	–	> 50 µM	49.8 µM	–
CC(=O)N[C@@H](CSCC1=C(C)C=C2C(=O)C(C)(O)C3(CC3)C(C)=C21)C(=O)O (some centres unmarked) [Compound 13]	2.3 ± 0.5	4.1 ± 0.8	4.7 ± 1.5	10 µM	–	–
CC(=O)N[C@@H](CSCC1=C(C)C=C2C(=O)C(C)(O)C3(CC3)C(C)=C21)C(=O)N[C@H](C)c1ccccc1 (some centres unmarked) [Compound 14]	3.2 ± 0.6	4.1 ± 0.8	6.0 ± 1.8	3.05 µM	–	–
CC1=C2C(=CC(C)(C)[C@@H]2O)C(=O)[C@](C)(O)C12CC2 [Illudin M]	–	–	–	–	–	therapeutic index (solid tumor systems): low; life span (Dunning leukemia): significantly increased
